Assay results: EP0545103A1, “Insecticidal, acaricidal and molluscicidal 1-(substituted) thioalkylpyrroles” (priority 1991, dated 1993)

Legend:
Venturia inaequalis = experiment: In vivo fungicidal activity, Apple Scab (AS); details: rate 400 ppm, host plants sprayed then inoculated, rating, averaged
Method: (§1) Test compounds are dissolved in acetone and diluted with deionized water containing about 0.05% TWEEN 20®, a polyoxyethylene sorbitan monolaurate surfactant manufactured by Atlas Chemical Industries, to give a concentration of 400 ppm. Subsequent dilutions are made with an 0.05% aqueous solution of TWEEN 20®.
(§2) Host plants are sprayed with test solution, dried and inoculated with fungi. When disease symptom development is optimal, the plants are rated for disease control according to the rating scale shown below. Each test contains inoculated treated plants, inoculated untreated plants and a reference standard.
(§3) When more than one test is run, the data are averaged.

Plasmopara viticola = experiment: In vivo fungicidal activity, Grape Downy Mildew (GDM); details: rate 400 ppm, rating, averaged
Method: as §1, §2, §3

Cercospora beticola = experiment: In vivo fungicidal activity, Sugarbeet Cercospora (SBC); details: rate 400 ppm, rating, averaged
Method: as §1, §2, §3

[1] = system: Puccinia recondita, tritici; experiment: In vivo fungicidal activity, Wheat Leaf Rust (WLR); details: rate 400 ppm, rating, averaged
Method: as §1, §2, §3

[2] = system: Erysiphe graminis, tritici; experiment: In vivo fungicidal activity, Wheat Powdery Mildew (WPM); details: rate 400 ppm, rating, averaged
Method: as §1, §2, §3

Pythium ultimum = experiment: In vitro fungicidal activity, mycelial growth inhibition on agar (Pyth); assay type: cell-based; details: Globisporangium ultimum, 48 h, two days
Method: (§4) Test compounds are dissolved in acetone, diluted with sterile, deionized water and mixed with a partially cooled, autoclaved, chemically defined agar medium. This mixture is poured into several 100mm x 15mm sterile plastic plates and allowed to solidify. The surface of each plate is inoculated with a single disc of mycelium and agar cut with an 8mm diameter cork borer from actively growing cultures of assay fungi on a chemically defined agar medium. The plates are incubated at room temperature. Growth inhibition is determined when the mycelial growth on unamended control media has reached the edge of the petri plates. The time interval varies depending on the growth rate of the fungus; two days for Pythium ultimum (pyth) and Rhizoctonia solani (Rhiz) , five days for Botrytis cinerea (Betry) and 7-10 days for Pseudocercosporella herpotrichoides (Pseudo). Each colony diameter is measured and compared with the untreated control and the percent inhibition is calculated as follows: [formula] Each test includes a solvent blank consisting of the formulation without a test compound in addition to the untreated control.
(§5) Assay fungi include the plant pathogens, Pythium ultimum (Pyth) and Rhizoctonia solani (Rhiz).
(§6) When more than one test is run the data are averaged.

Rhizoctonia solani = experiment: In vitro fungicidal activity, mycelial growth inhibition on agar (Rhiz); assay type: cell-based; details: 48 h, two days
Method: as §4, §5, §6

[3] = system: Spodoptera eridania, 3rd instar larvae, southern armyworm; experiment: Southern armyworm 3rd instar test, dipped limabean leaf; assay type: in vivo; details: 1000 ppm
Summary of the method: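 Compound dissolved in 35% acetone/water at 10,000 ppm stock, diluted with water. Sieva limabean leaves dipped 3 s, dried, and exposed to ten 3rd instar larvae on damp filter paper. Mortality, reduced feeding and molting interference scored at 3 and 5 days on a rating scale.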

[4] = system: Diabrotic undecimpunctata howardi, 3rd instar southern corn rootworm; experiment: Southern corn rootworm soil test; assay type: in vivo; set-up: key: 0: no effect; 10-25% kill; 26-35% kill; 36-45% kill; 46-55% kill; 56-65% kill; 66-75% kill; 76-85% kill; 86-99% kill; 9: 100% kill; details: 50 (ppm as headed), mortality rating after 6 days
Summary of the method: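 Compound applied in acetone to talc at 1.25 and 0.25 mg active ingredient per jar (about 50 and 10 kg/ha), dried, then mixed with millet seed and moist soil. Ten 3rd instar larvae added per jar; mortality counted at 6 days, with missing larvae scored dead. Results rated on a scale.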

Q: With N#CSCn1c(Br)c(Br)c(C#N)c1Br [Example 38, 1-[(cyanothio)methyl]-2,4,5-tribromopyrrole-3-carbonitrile] as the compound, how does the “Disease Control AS” value (Venturia inaequalis) read?
A: The value was 2.0.

Q: And the “Disease Control GDM” value (Plasmopara viticola)?
A: The value was 3.0.

Q: And the “Disease Control SBC” value (Cercospora beticola)?
A: Its value is 0 (0).

Q: What about the “Disease Control WLR” value [1] of the same compound?
A: Its value is 5.0.

Q: What about the “Disease Control WPM” value [2] of the same compound?
A: The value was 0 (0).

Q: And the inhibition at 1 ppm (Pythium ultimum; rate 1 ppm in agar)?
A: Its inhibition at 1 ppm is 1.5%.

Q: And the inhibition at 10 ppm (Pythium ultimum; rate 10 ppm in agar)?
A: The inhibition at 10 ppm was 4%.

Q: What about the inhibition at 25 ppm (Pythium ultimum; rate 25 ppm in agar) of the same compound?
A: Its inhibition at 25 ppm is 4.5%.

Q: What about the inhibition at 1 ppm (Rhizoctonia solani; rate 1 ppm in agar) of the same compound?
A: The inhibition at 1 ppm was 1.5%.

Q: What about the inhibition at 10 ppm (Rhizoctonia solani; rate 10 ppm in agar) of the same compound?
A: Its inhibition at 10 ppm is 3.5%.

Q: And the inhibition at 25 ppm (Rhizoctonia solani; rate 25 ppm in agar)?
A: The inhibition at 25 ppm was 5.8%.

Q: What about the “ARMYWORM Day 3” value ([3]; rating at 3 days) of the same compound?
A: The value was 9 (100% kill).

Q: And the “ARMYWORM Day 5” value ([3]; rating at 5 days)?
A: The value was 9 (100% kill).

Q: What about the “SOUTHERN CORN ROOTWORM” value [4] of the same compound?
A: Its value is 0.
